# In patent US11312726B2, “Thienodiazepine derivatives and application thereof” (priority 2017, dated 2022):
# Tests used:
# [1] = biological target: BRD4-BD2 (Homo sapiens (Human), UniProt O60885); assay: BRD4 biochemical activity test (TR-FRET), BD2; settings: read-out: BRD4 Binding (BD2), IC50
# Source text: (§1) BRD4 Biochemical Activity Test
# (§2) 1) BRD4-BD1 and BRD4-BD2 proteins of BPS Company, polypeptide of ANASPEC Company, and test reagent of PerkinElmer Company were used in the experiments;
# (§3) 2) The TR-FRET experimental principle was used in the experiment to screen compounds.
# (§4) 3) Relevant control compounds
# (§5) 1) Preparation of the Compound Plate:
# (§6) Preparation of the compound plate in the experiment was achieved by Echo:
# (§7) 2) Preparation of Reaction Reagents:
# (§8) Relevant reaction reagents should be prepared on the day of the experiment:
# (§9) a) Formulation of 1× assay buffer;
# (§10) b) Formulation of 3× component solution for the experiment: […]
# (§11) 1. The reagent was taken out and placed on ice to naturally melt for later use;
# (§12) 2. “Solution A” (protein solution), “solution B” (polypeptide solution), and “solution C” (test reagent solution) used in the experiment were formulated with the 1× assay buffer, and during the formation of the 3× solution from the components used in the experiment reaction system, the amounts of solutions A, B and C must be enough for the required amounts in the experiment.
# (§13) 3) Experimental Operation Steps:
# (§14) The experiment plate was a plate that contained a gradient concentration of the compound and a corresponding DMSO solution and was prepared with ECHO before the experiment:
# (§15) a) The experiment plate was taken out, and 5 μL/well of “solution A” (protein solution) was added to columns 2-23 of the experiment plate, then 5 μL/well of 1× assay buffer was added to columns 1 and 24 of the experiment plate, and columns 1 and 24 were used as Min control in the experiment system;
# (§16) b) Centrifugation at 1000 rpm was carried out for 30 seconds;
# (§17) c) The plate was incubated at 23° C. for 20 minutes;
# (§18) d) After 20 minutes of incubation, 5 μL/well of “solution B” (polypeptide solution) was added to columns 1-24 of the experiment plate;
# (§19) e) Centrifugation at 1000 rpm was carried out for 30 seconds;
# (§20) f) The plate was incubated at 23° C. for 20 minutes;
# (§21) g) After 20 minutes of incubation, 5 μL/well of “solution C” (test reagent solution) was added to columns 1-24 of the experiment plate;
# (§22) h) Centrifugation at 1000 rpm was carried out for 30 seconds;
# (§23) i) The plate was incubated at 23° C. for 40 minutes;
# (§24) j) The experiment plate was placed on EnVision to read the plate.
# (§25) a) The corresponding Max control and Min control of each experiment plate were used to convert to the Z′ value of the experiment plate, and the Z′ value of each plate was ensured to be >0.5;
# (§26) b) The IC50 value was calculated from the signal of the control compound by XLFIT5, and ensured to be maintained within 3 times of the average value of historical data.
# [2] = biological target: BRD4-BD1 (Homo sapiens (Human), UniProt O60885); assay: BRD4 biochemical activity test (TR-FRET), BD1; settings: read-out: BRD4 Binding (BD1), IC50
# Source text: as §1, §2, §3, §4, §5, §6, §7, §8, §9, §10, §11, §12, §13, §14, §15, §16, §17, §18, §19, §20, §21, §22, §23, §24, §25, §26
Compound,IC50 [1],IC50 [2]
Cc1sc2c(c1C)C(c1ccc(Cl)cc1)=N[C@@H](CC(=O)Nc1ccc3c(c1)CC1(COC1)C3)c1nnc(C)n1-2 [Compound 27],9 nM,55 nM
Cc1sc2c(c1C)C(c1ccc(Cl)cc1)=N[C@@H](CC(=O)Nc1n[nH]c(=O)c3ccccc13)c1nnc(C)n1-2 [Compound 8],11 nM,51 nM
Cc1sc2c(c1C)C(c1ccc(Cl)cc1)=N[C@@H](CC(=O)Nc1ccc3c(c1)C[C@@H](F)C3)c1nnc(C)n1-2 [Compound 24],17 nM,206 nM
Cc1sc2c(c1C)C(c1ccc(Cl)cc1)=N[C@@H](CC(=O)Nc1ccc3c(c1)C(=O)SC3)c1nnc(C)n1-2 [Compound 22],10 nM,199 nM
Cc1sc2c(c1C)C(c1ccc(Cl)cc1)=N[C@@H](CC(=O)Nc1ccc3c(c1)CNC3=O)c1nnc(C)n1-2 [Compound 2],10 nM,49 nM
Cc1sc2c(c1C)C(c1ccc(Cl)cc1)=N[C@@H](CC(=O)Nc1ccc3c(c1)C1(CC1)C(=O)N3)c1nnc(C)n1-2 [Compound 9],11 nM,49 nM
Cc1sc2c(c1C)C(c1ccc(Cl)cc1)=N[C@@H](CC(=O)Nc1ccc3c(c1)C(=O)NC31CC1)c1nnc(C)n1-2 [Compound 10],16 nM,81 nM
Cc1sc2c(c1C)C(c1ccc(Cl)cc1)=N[C@@H](CC(=O)Nc1ccc3c(c1)CN(S(C)(=O)=O)C3)c1nnc(C)n1-2 [Compound 19],8 nM,49 nM
Cc1sc2c(c1C)C(c1ccc(Cl)cc1)=N[C@@H](CC(=O)Nc1ccc3c(c1)COC3)c1nnc(C)n1-2 [Compound 16],12 nM,60 nM
Cc1sc2c(c1C)C(c1ccc(Cl)cc1)=N[C@@H](CC(=O)Nc1ccc3c(c1)C(=O)NC3=O)c1nnc(C)n1-2 [Compound 36],10 nM,126 nM
Cc1sc2c(c1C)C(c1ccc(Cl)cc1)=N[C@@H](CC(=O)Nc1ccc3c(c1)C(=O)OC3)c1nnc(C)n1-2 [Compound 30],9 nM,51 nM
Cc1cc2c(cc1NC(=O)C[C@@H]1N=C(c3ccc(Cl)cc3)c3c(sc(C)c3C)-n3c(C)nnc31)COC2 [Compound 26],30 nM,112 nM
Cc1sc2c(c1C)C(c1ccc(Cl)cc1)=N[C@@H](CC(=O)Nc1ccc3c(c1C)COC3)c1nnc(C)n1-2 [Compound 25],20 nM,79 nM
Cc1sc2c(c1C)C(c1ccc(Cl)cc1)=N[C@@H](CC(=O)Nc1ccc3c(c1)C1(CC1)NC3=O)c1nnc(C)n1-2 [Compound 12],12 nM,40 nM
Cc1sc2c(c1C)C(c1ccc(Cl)cc1)=N[C@@H](CC(=O)Nc1ccc3c(c1)CN(C(N)=O)C3)c1nnc(C)n1-2 [Compound 20],11 nM,169 nM
CC(=O)N1Cc2ccc(NC(=O)C[C@@H]3N=C(c4ccc(Cl)cc4)c4c(sc(C)c4C)-n4c(C)nnc43)cc2C1 [Compound 17],7 nM,24 nM
Cc1sc2c(c1C)C(c1ccc(Cl)cc1)=N[C@@H](CC(=O)Nc1ccc3c(c1)CNC3)c1nnc(C)n1-2 [Compound 18],8 nM,23 nM
Cc1sc2c(c1C)C(c1ccc(Cl)cc1)=N[C@@H](CC(=O)Nc1ccc3c(c1)CC(F)(F)C3)c1nnc(C)n1-2 [Compound 21],34 nM,522 nM
Cc1sc2c(c1C)C(c1ccc(Cl)cc1)=N[C@@H](CC(=O)Nc1ccn3c(=O)c(O)cnc3c1)c1nnc(C)n1-2 [Compound 5],9 nM,83 nM
Cc1sc2c(c1C)C(c1ccc(Cl)cc1)=N[C@@H](CC(=O)Nc1ccc3c(c1)C(C)(C)OC3=O)c1nnc(C)n1-2 [Compound 37],11 nM,148 nM
Cc1sc2c(c1C)C(c1ccc(Cl)cc1)=N[C@@H](CC(=O)Nc1ccc3c(c1)[C@H]1CC[C@@H]3O1)c1nnc(C)n1-2 [Compound 35],12 nM,155 nM
Cc1sc2c(c1C)C(c1ccc(Cl)cc1)=N[C@@H](CC(=O)Nc1ccc3c(c1)OCCOCCOCCO3)c1nnc(C)n1-2 [Compound 31],5 nM,37 nM
Cc1sc2c(c1C)C(c1ccc(Cl)cc1)=N[C@@H](CC(=O)Nc1ccc3nonc3c1)c1nnc(C)n1-2 [Compound 33],19 nM,248 nM
Cc1sc2c(c1C)C(c1ccc(Cl)cc1)=N[C@@H](CC(=O)Nc1cc3c(cc1Cl)COC3)c1nnc(C)n1-2 [Compound 28],15 nM,60 nM
Cc1sc2c(c1C)C(c1ccc(Cl)cc1)=N[C@@H](CC(=O)Nc1ccc3c(c1)C(=O)NC3)c1nnc(C)n1-2 [Compound 1],11 nM,65 nM
Cc1sc2c(c1C)C(c1ccc(Cl)cc1)=N[C@@H](CC(=O)Nc1cc3c(cc1F)COC3)c1nnc(C)n1-2 [Compound 29],16 nM,74 nM
